# Target: T1, A®1-42 peptide (Homo sapiens, UniProt P05067)
# T1 construct: A®1-42 lyophilized powder (Bachem) was reconstituted in hexafluoroisopropanol (HFIP) to 1 mM; purchased Bachem
# Assay: Thioflavin T spectrofluorescence assay (ThT-assay), inhibition of A®1-42 aggregation
# Type: biochemical
# Details: 330 µM small molecule, 33 µM A®1-42 (molar ratio 10:1), 10 µM ThT, 12.8% DMSO in PBS, 24 hrs at 37° C.; mean +/- SD of two independent experiments
# Description: The capacity of the compounds of the invention to inhibit the aggregation of A®1-42 peptide was determined by using the thioflavin T spectrofluorescence assay (ThT-assay) as described below.
# A®1-42 lyophilized powder (Bachem) was reconstituted in hexafluoroisopropanol (HFIP) to 1 mM. The peptide solution was sonicated for 15 min at room temperature, agitated overnight, and aliquots were placed into non-siliconized microcentrifuge tubes. The HFIP was then evaporated under a stream of argon. The resulting peptide film was dried under vacuum for 10 min, tightly sealed and stored at −80° C. until used.
# An A®1-42 peptide film was dissolved in DMSO to reach 400 ? M. An assay solution in PBS was prepared in non-siliconized incubation tubes to reach the following concentrations: 330 ? M small molecule, 33 ? M A®1-42, 10 ? M thioflavin T (ThT), and 12.8% DMSO. Therefore, the final molar ratio of small molecule to A®1-42 was 10:1. A positive control without a small molecule was prepared to measure maximum RFU. A negative control without A®1-42 was prepared for each small molecule. The 3-amino-pyrazole trimer (Rzepecki et. al. Synthesis 2003, 1815) was tested as a reference compound in all assays to ascertain reproducibility between independent experiments. The solutions were then incubated for 24 hrs at 37° C., and the spectrofluorescence (relative fluorescence units; RFU) read in six replicates in black 384-well assay plates (Perkin-Elmer) on a Perkin-Elmer FluoroCount spectrofluorometer. Inhibition of aggregation is expressed as mean % inhibition±1 standard deviation (SD) according to the following equation: […]
# T1 sequence (P05067 672-713): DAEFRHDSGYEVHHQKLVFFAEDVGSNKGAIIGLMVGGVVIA
row,Structure (SMILES),inhibition at 330 µM [%]
1,FC(F)(F)c1ccc(Nc2cncc(NCC3CCNCC3)c2)cn1 [Example 1],38 ± 0.6
2,Fc1cc(F)cc(Nc2cncc(NCC3CCNCC3)c2)c1 [Example 9],55 ± 7.4
3,CN1CCC(CNc2cncc(Nc3ccc(C(F)(F)F)nc3)c2)CC1 [Example 18],29.5 ± 0.1
4,FC(F)(F)c1ccc(Nc2cncc(NCC3CCOCC3)c2)cc1 [Example 20],51.7 ± 0.3
5,FC1(CNc2cncc(Nc3ccc(C(F)(F)F)cc3)c2)CCNCC1 [Example 16],62.9 ± 8.2
6,FC(F)(F)c1ccc(Nc2cncc(N3CCOCC3)c2)cn1 [Example 3],36.9 ± 17.2
7,c1ncc(NCC2CCNCC2)cc1NCC1CCNCC1 [Example 8],69.5 ± 1.4
8,c1ncc(Nc2ccc3c4c([nH]c3n2)CCCC4)cc1NCC1CCNCC1 [Example 13],100 ± 4.4
9,c1cc2c(C3CCNCC3)c[nH]c2cc1Nc1cncc(N2CCOCC2)c1 [Example 4],53.3 ± 7.6
10,c1ncc(N2CCOCC2)cc1N1CCOCC1 [Example 2],15.7 ± 6.1
11,c1ncc(Nc2ccc3c(C4CCNCC4)c[nH]c3c2)cc1NCC1CCNCC1 [Example 12],95.4 ± 0.8
12,Cn1c2c(c3ccc(Nc4cncc(NCC5(F)CCNCC5)c4)nc31)CCCC2 [Example 17],96.5 ± 1.4
13,FC1(CNc2cncc(Nc3ccc4c5c([nH]c4n3)CCCC5)c2)CCNCC1 [Example 15],95.7 ± 0.4
14,c1cc2ccc(Nc3cncc(NCC4CCNCC4)c3)nc2[nH]1 [Example 11],62.7 ± 2.1
15,c1ncc(N2CCNCC2)cc1N1CCNCC1 [Example 5],60.1 ± 7.8
16,FC(F)(F)c1ccc(Nc2cncc(NCC3CCOCC3)c2)cn1 [Example 19],40.2 ± 6.3
17,FC(F)(F)c1ccc(Nc2cncc(NCC3CCNCC3)c2)cc1 [Example 10],73.9 ± 4.7
18,FC(F)(F)c1ccc(Nc2cncc(N3CCNCC3)c2)cn1 [Example 7],28.3 ± 3.2
19,Fc1cc(F)cc(Nc2cncc(N3CCNCC3)c2)c1 [Example 6],62.5 ± 7.4
20,FC1(CNc2cncc(Nc3ccc(C(F)(F)F)nc3)c2)CCNCC1 [Example 14],86.2 ± 4.7
